1 compound from US4738982A, “HMG-CoA reductase inhibitors” (Merck & Co., Inc., priority 1986, dated 1988) can be followed below.

pIC50: −log10 of the molar value.

In this test the target is T1, HMG-CoA reductase (Rattus norvegicus, UniProt P51639).
T1 sequence (P51639 1-887): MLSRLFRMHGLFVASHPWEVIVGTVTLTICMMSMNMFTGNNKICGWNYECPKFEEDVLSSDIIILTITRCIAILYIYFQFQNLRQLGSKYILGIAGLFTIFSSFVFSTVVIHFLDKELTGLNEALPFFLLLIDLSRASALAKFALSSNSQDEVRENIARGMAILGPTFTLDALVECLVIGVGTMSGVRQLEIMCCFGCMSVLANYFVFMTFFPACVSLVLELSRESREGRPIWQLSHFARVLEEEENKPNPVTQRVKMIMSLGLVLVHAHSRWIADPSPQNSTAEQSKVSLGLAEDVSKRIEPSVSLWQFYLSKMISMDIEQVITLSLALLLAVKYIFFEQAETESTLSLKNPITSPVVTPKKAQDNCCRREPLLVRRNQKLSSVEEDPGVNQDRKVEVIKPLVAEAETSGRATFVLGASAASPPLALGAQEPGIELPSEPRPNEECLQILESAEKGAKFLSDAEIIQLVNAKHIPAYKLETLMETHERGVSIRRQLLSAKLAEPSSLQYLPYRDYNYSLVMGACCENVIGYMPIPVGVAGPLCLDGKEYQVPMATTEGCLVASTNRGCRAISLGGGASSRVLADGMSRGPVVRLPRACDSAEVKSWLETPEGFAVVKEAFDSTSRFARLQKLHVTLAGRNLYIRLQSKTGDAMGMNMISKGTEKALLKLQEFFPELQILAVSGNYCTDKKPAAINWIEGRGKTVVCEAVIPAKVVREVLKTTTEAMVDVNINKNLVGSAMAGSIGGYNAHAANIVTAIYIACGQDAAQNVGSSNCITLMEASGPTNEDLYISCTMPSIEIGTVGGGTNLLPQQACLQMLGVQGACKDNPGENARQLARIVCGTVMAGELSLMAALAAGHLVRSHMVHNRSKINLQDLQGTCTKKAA
Description: intrinsic HMG-CoA reductase inhibition, in vitro protocol of J. Med. Chem., 1985, 28, page 347. The note with it: in vitro protocol described in J. Med. Chem., 1985, 28, page 347. Type of test: biochemical. As for the experimental part:
The intrinsic HMG-CoA reductase inhibition activity of the claimed compounds is measured in the in vitro protocol described is J. Med. Chem., 1985, 28, page 347.

Usually pIC50 stands for the negative decadic logarithm of the IC50, by convention in mol/L. Low values mean a high IC50, high ones a low IC50. `CC[C@H](C)C(=O)O[C@H]1C[C@@H](C)CC2=CC(O)[C@H](C)C(CC[C@@H](O)C[C@@H](O)CC(=O)O)=C21` (stereo partly shown) gave a negative-log IC50 (pIC50) of 6.26.
